Test [1] relates to fungi. The experiment in a line: fungicidal activity (general statement, no test described). The conditions noted are these: enantiomer Ib compared with enantiomer Ia / racemate.
Test [2] has as its system fungi. Particulars: racemic compound, described in WO 2010/063700; cited from earlier work.

SMILES strings stand for the structures. Like-named read-outs stand apart in the source and are kept apart here.

Take `CON(C(=O)c1cn(C)nc1C(F)F)[C@@H](C)Cc1c(Cl)cc(Cl)cc1Cl` [Ib, 3-(difluoromethyl)-N-methoxy-1-methyl-N-[(1S)-1-methyl-2-(2,4,6-trichlorophenyl)ethyl]pyrazole-4-carboxamide]: the fungicidal activity result in test [1] was “more prominent fungicidal activity”.
Take `CON(C(=O)c1cn(C)nc1C(F)F)C(C)Cc1c(Cl)cc(Cl)cc1Cl` (racemic) [3-(difluoromethyl)-N-methoxy-1-methyl-N-[1-methyl-2-(2,4,6-trichlorophenyl)ethyl]pyrazole-4-carboxamide]: in test [2], the fungicidal activity entry is on record as “excellent fungicidal activity”.

These data come from US9637457B2, “Process for the stereoselective preparation of a pyrazole-carboxamide” (Syngenta Participations AG, priority 2014, dated 2017).
